Source: EP2657347A1, “Electrochemical competitive assay and use thereof” (Université Paris Diderot - Paris 7, priority 2012, dated 2013)
One block for each compound: values may come before it.

What was measured:
D-Apt49 [1] = assay: Homogeneous electrochemical competitive binding assay in Tris buffer
Experimental: (§1) All experiments were performed in 5 mM Tris buffer (pH 7) containing 10 mM MgCl2 and 50 mM NaCl (Recognition Buffer, RBr). The L-Tym concentration is always 5 µM. For cyclic voltammetric experiments, 1 µM [Os(bpy)3]2+ with 5 µM 1-Tym in a droplet of 50 µL RBr was used. So, before each experiment, the droplet is shaking with a micropipette. This procedure is repeated until we obtain a reproducible and stable voltammogram. Mother solution of Fc-1-Tym was a […] solution in DMF. This product is conserved at 4°C and seal with parafilm. Before each experiment, this solution is diluted 10 times in stabilized DMF, such as 0.2 µL in 50 µL of RBr leads to 5 µM of Fc-1-Tym.
(§2) Cyclic voltammetry measurements were performed with an AUTOLAB PGSTAT 12 potentiostat/galvanostat controlled by computer, and the data were acquired using GPES 4.9007 software (EcoChemie, The Netherlands). Small self-contained electrochemical cells made of 3 screen-printed electrodes on a flat substrate were used for all experiments. The electrodes were printed using a DEK model-65 screen-printer. Working electrodes were 4 mm diameter screen-printed carbon electrodes prepared using a commercial carbon ink (Electrodag PF-470 A) deposited on the top of an underlying Ag layer (Electrodag 418 SS). Counter electrode was obtained using an Ag ink (Electrodag 418 SS).
(§3) Before experiments, the screen-printed carbon electrodes were coated with bovine serum albumin (BSA) by immersing the electrodes in a 1 mg/mL BSA solution for 10 minutes at room temperature. The BSA-modified electrodes were next cycled between 0 V and 0.8 V at v = 0.05 V/s, until of the capacitive background current in cyclic voltammetry was stablized.
The competitive assay can be described by the two equilibrated binding reactions 6a and 6b, in which Fc-L-Tym is L-tyrosinamide labeled by a redox-active ferrocene group. The ferrocenyl label was here incorporated on the ―OH position of the phenolic group (Scheme 1). Note that under this condition the catalytic oxidation of the phenolic residue is no more possible and only the ferrocene labeled molecule can be detected. [drawing 63] [drawing 64] with Kd = (CTCR)/CRT [formula] Kd^(*) = (CT^(*)CR)/CRT^(*) [formula] where CR is the concentration of free aptamer receptor. […] Ideally, the two binding constants should be as close as possible (Kd ≈ K^*d). The value of K^*d was determined by monitoring in CV the reversible response of 5 µM Fc-L-Tym solution as a function of increasing concentrations of D-Apt49.
The competitive binding assay was achieved from two separate solutions containing a starting mixture of 5 µM Fc- L-Tym and 3 µM or 10 µM D-Apt49, and to which an increasing amount of L-Tym was added. […]

D-Apt49 [2] = assay: Redox-mediated catalytic cyclic voltammetry titration with aptamer; format: binding; details: specificity / enantioselectivity test, Figure 2B
Experimental: as §1, §2, §3
The 49-mer aptamer we have used (see here above) is a sequence similar to the one that was previously selected by Vianini et al and successfully applied to chromatographic- and fluorescence-based L-Tym assays. Since direct electrochemical oxidation of phenolic compounds generally leads to electrode passivation and thus to poorly reproducible anodic peak current in cyclic voltammetry (CV), the electrochemical detection of L-Tym was performed by redox-mediated catalytic oxidation of the phenolic function. For such a purpose, we have used the one-electron redox mediator couple [Os^III/II(bpy)3]^3+/2+ which, according to its relatively high standard potential (E^0=+0.58 V vs. Ag/AgCl), is capable to efficiently catalyze the oxidation of phenolic compounds. [drawing 51]
The linear dependence of the peak current with both the square root of scan rate, v, and L-Tym concentration, indicates conditions of total catalysis for which the catalytic peak current response, ip, can be expressed by eq 1. ip = 0.609nFSCT^0 sqrt(DT)sqrt(fv/RT) [formula] where n is the number of electron involved in the catalytic reaction, F the Faraday constant, S the electrode area, C^0T the bulk concentration of L-Tym, and DT the diffusion coefficient of L-Tym. After aptamer addition, the binding reaction (eq 2) is rapidly set at equilibrium. [drawing 53] with Kd the dissociation constant. On the basis of a classical law of action mass and mass balance (i.e., C^0T = CT + CRT, with CT and CRT the free and receptor-bound target concentrations), and assuming a 1:1 binding stoichiometry, the free (χƒ) mole fraction of target in the bulk solution can thus be estimated by eq 3. χf = (CT)/(CT^0) = 1-(Kd + CT^0 + CR^0 -sqrt(((Kd+CT^0+CR^0))^2 -4CT^0 CR^0))/(2CT^0) [formula]
Here, C^0R is the total concentration of the aptamer receptor added to the solution. Under the assumption of a slow interconversion of free and bound target on the time scale of CV experiments, the catalytic peak current can thus be expressed by a linear combination of the catalytic currents related to the free and bound target through eq 4. ip = 0.609nFSCT^0 sqrt(fv/RT)[χfsqrt(DT)+(1-χf)sqrt(DRT)] [formula] where DT and DRT are the diffusion coefficients of the free and receptor-bound target, respectively. […]

L-Apt49 [3] = assay: Redox-mediated catalytic cyclic voltammetry titration with mirror-image aptamer; format: binding; details: nonlinear fit of eq 5; catalytic peak current, Tris buffer
Experimental: as §1
Cyclic voltammetry measurements were performed with an AUTOLAB PGSTAT 12 potentiostat/galvanostat controlled by computer, and the data were acquired using GPES 4.9007 software (EcoChemie, The Netherlands). Small self-contained electrochemical cells made of 3 screen-printed electrodes on a flat substrate were used for all experiments. […]
From the combination of eqs 3 and 5 and knowledge of the catalytic peak currents determined both in the absence of aptamer (ip^0) [formula] and at extrapolated infinite aptamer concentration (ip^(∞)), [formula] we can write eq 5 which allows to predict the normalized peak current response decreases as a function of aptamer and target concentrations. […]

D-Apt49 [4] = assay: Homogeneous electrochemical competitive binding assay in 20% fetal bovine serum
Experimental: • Figure 1: Electrochemically competitive assay of the invention. Left-hand column: before the addition of the sample: a first redox signal is measured. Right-hand column: after the addition of a sample containing the target to be detected or measured: a second redox signal is measured. (A) Homogeneous electrochemically competitive assay: the presence of the target disrupts the complex formed between the oligonucleotide ligand and the redox-labeled target. […] (B) Heterologous electrochemically competitive assay, wherein the oligonucleotide ligand is attached to a solid phase: the presence of the target disrupts the complex formed between the oligonucleotide ligand and the redox-labeled target, thereby inducing a better detection of the redox labeled-target. […] (C) Heterologous electrochemically competitive assay, wherein the oligonucleotide ligand is attached to the electrode: the presence of the target disrupts the complex formed between the oligonucleotide ligand and the redox-labeled target, thereby reducing the detection of the redox labeled-target. […] (f) CV of 1 µM [Os(bpy)3]^2+ alone. […] Error bars: standard deviations from 3 measurements. Plain lines: fits of eq 5 to the experimental data. • Figure 3: (A) CVs (v = 0.05 V s^-1) of 5 mM Tris buffer (pH 7.0) containing 50 mM NaCl, 10 mM Mg^2+, 5 µM Fc-L-Tym and (a) 0 µM, (b) 1 µM, (c) 2 µM, (d) 3 µM, (e) 4 µM (f) 5 µM (g) 7.5 µM (h) 10 µM (i) 12.5 µM and (j) 15 µM of D-Apt49. (B) Normalized anodic peak current response as a function of aptamer concentration. Each data is the average of 3 measurements. Error bars are standard deviations. Plain line: fit of eq 5 to the experimental data. • Figure 4: Competitive binding curves performed in (A) 5 mM Tris buffer (pH 7 + 50 mM NaCl + 10 mM MgCl2) or (B) 20% fetal bovine serum (simply diluted with a 4 mM MgCl2 aqueous solution) as a function of (●, ★, ▼, Δ) L-Tym or (○) D-Tym concentration. (*) Assay of 5 µM L-Tym in the presence of 5 mM D-Tym. The Fc-L-Tym concentration was always C^0T*= 5 µM, whereas the D-Apt49 concentrations were C^0R: (●) 3, (★,○,*) 10, (▼) 40 and (Δ) 100 µM.
The enantiospecificity of the assay was next characterized using the same methodology but for solutions containing the D-Tym enantiomer. […] To evaluate the enantiospecific performance of the aptamer, the assay of trace amount of L-Tym in the presence of a large excess of D-Tym was examined and, as reported in Figure 4A, it has been found possible to detect as low as 5 µM L-Tym in the presence of 5 mM D-Tym. This remarkable performance means that as low as 0.1 % of an enantiomeric impurity in a nonracemic mixture can be assayed in a very short analysis time (<1 min). This is competitive with conventional separation techniques, and one order of magnitude lower than the 1% currently attainable by NMR. Finally, the ability to perform an assay under realistic biological conditions was examined. For such purpose, homogenous electrochemical competitive binding assays of 5-fold diluted fetal bovin serum samples spiked with known amounts of […] were then performed (Figure 4B).

D-Apt49 [5] = assay: Cyclic voltammetry titration of ferrocene-labeled target with aptamer; format: binding; details: 5 µM Fc-L-Tym, increasing D-Apt49, Tris buffer pH 7.0; fit of eq 5; also used as predetermined value in competitive fits
Experimental: as §1
Cyclic voltammetry measurements were performed with an AUTOLAB PGSTAT 12 potentiostat/galvanostat controlled by computer, and the data were acquired using GPES 4.9007 software (EcoChemie, The Netherlands). […]
The competitive assay can be described by the two equilibrated binding reactions 6a and 6b, in which Fc-L-Tym is L-tyrosinamide labeled by a redox-active ferrocene group. […] Note that under this condition the catalytic oxidation of the phenolic residue is no more possible and only the ferrocene labeled molecule can be detected. […] The value of K^*d was determined by monitoring in CV the reversible response of 5 µM Fc-L-Tym solution as a function of increasing concentrations of D-Apt49. […]

L-Apt49 [6] = assay: Cyclic voltammetry of ferrocene-labeled target with mirror-image aptamer; format: binding; details: not shown

displacement of Fc-L-Tym from D-Apt49 (D-Apt49 [1]; 0-100 µM concentration range, 10 µM D-Apt49, Tris buffer): no displacement
response change (D-Apt49 [1]; concentrations as high as few millimolar): without significant response change
Kd (L-Apt49 [3]): 3.8 ± 0.7 µM
Structure (SMILES): NC(=O)[C@H](N)Cc1ccc(O)cc1 [D-Tym, d-tyrosinamide]
catalytic current response upon the addition of D-Apta49 (D-Apt49 [2]): no significant catalytic current response decrease

Kd (D-Apt49 [4]; 5-fold diluted fetal bovine serum, average of the fitted curves, read-out: K^*d (average value)): 75 µM
Kd (D-Apt49 [4]; 20% fetal bovine serum, 5 µM Fc-L-Tym, 40 µM D-Apt49, read-out: K^*d): 75 µM
Kd (D-Apt49 [4]; 20% fetal bovine serum, 5 µM Fc-L-Tym, 100 µM D-Apt49, read-out: K^*d): 75 µM
Kd (D-Apt49 [5]): 1.2 ± 0.4 µM
Structure (SMILES): NC(=O)[C@@H](N)Cc1ccc(O[c-]2cccc2)cc1.[Fe+2].c1cc[cH-]c1 [Fc-L-Tym, O-Ferrocenyltyrosynamide]
current change in the presence of L-Apt49 (L-Apt49 [6]): absence of current change

Structure (SMILES): N[C@@H](Cc1ccc(O)cc1)C(=O)O [L-tyrosine]
catalytic current response upon the addition of D-Apta49 (D-Apt49 [2]): no significant catalytic current response decrease

Structure (SMILES): CC(=O)Nc1ccc(O)cc1 [paracetamol]
catalytic current response upon the addition of D-Apta49 (D-Apt49 [2]): no significant catalytic current response decrease
